# Source: patent US12016852B2, “Pyrrolidine glycosidase inhibitors” (Asceneuron SA, priority 2018, dated 2024)
# Molecular target: T1, Human O-GlcNAcase (His-Tagged hOGA) (Homo sapiens, UniProt O60502)
# T1 sequence (O60502 1-916): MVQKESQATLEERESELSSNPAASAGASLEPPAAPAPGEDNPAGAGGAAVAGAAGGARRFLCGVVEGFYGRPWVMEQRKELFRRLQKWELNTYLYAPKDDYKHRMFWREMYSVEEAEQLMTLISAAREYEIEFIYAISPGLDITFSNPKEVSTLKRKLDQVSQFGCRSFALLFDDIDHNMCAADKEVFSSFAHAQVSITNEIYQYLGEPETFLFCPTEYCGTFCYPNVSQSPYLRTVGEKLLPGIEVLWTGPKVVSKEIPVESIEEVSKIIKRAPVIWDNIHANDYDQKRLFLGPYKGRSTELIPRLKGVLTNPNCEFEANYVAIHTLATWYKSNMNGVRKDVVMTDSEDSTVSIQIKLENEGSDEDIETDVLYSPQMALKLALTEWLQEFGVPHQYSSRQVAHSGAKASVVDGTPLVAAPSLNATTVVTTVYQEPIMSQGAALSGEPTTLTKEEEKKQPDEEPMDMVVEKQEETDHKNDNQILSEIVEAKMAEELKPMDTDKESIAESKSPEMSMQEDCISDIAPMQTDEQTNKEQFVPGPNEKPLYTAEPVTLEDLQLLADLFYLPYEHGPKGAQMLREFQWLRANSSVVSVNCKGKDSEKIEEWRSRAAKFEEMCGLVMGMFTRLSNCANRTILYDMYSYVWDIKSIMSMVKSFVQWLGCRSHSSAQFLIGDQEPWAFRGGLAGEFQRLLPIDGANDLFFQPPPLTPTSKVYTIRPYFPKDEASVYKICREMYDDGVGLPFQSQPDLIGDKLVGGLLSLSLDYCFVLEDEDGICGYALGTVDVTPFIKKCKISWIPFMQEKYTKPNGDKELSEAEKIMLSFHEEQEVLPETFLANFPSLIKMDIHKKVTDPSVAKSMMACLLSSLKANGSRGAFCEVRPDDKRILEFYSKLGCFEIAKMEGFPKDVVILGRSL
# Assay: Human O-GlcNAcase enzyme inhibition assay
# Assay type: biochemical
# Conditions: 20 nM His-Tagged hOGA, 10 μM FL-GlcNAc, McIlvaine's Buffer pH 6.5, 60 min at room temperature, fluorescence; read-out: OGA IC50
# Description: Example B01: Human O-GlcNAcase Enzyme Inhibition Assay
# 5 μl of the appropriate concentration of a solution of inhibitor in Mcllvaine's Buffer (pH 6.5) in 2% DMSO (for a dose response curve calculation) is added into each well of a 384-well plate (Greiner, 781900). Then, 20 nM of His-Tagged hOGA and 10 μM of FL-GlcNAc (Fluorescein mono-beta-D-(2-deoxy-2-N-acetyl) glucopyranoside; Marker Gene Technologies Inc, M1485) were added to the 384-well plate for a final volume of 20 μl. After incubation for 60 min at room temperature, the reaction was terminated by the addition of 10 μL of stop buffer (200 mM glycine, pH 10.75). The level of fluorescence (λexc 485 nm; (λemm 520 nm) was read on a PHERAstar machine. The amount of fluorescence measured was plotted against the concentration of inhibitor to produce a sigmoidal dose response curve to calculate an IC50. All individual data was corrected by subtraction of the background (Thiamet 3 uM=100% inhibition) whilst 0.5% DMSO was considered as the control value (no inhibition).
row,SMILES,IC50 [nM]
1,Cn1ccc(-c2ccc(CN3CCCC3c3ccc4c(c3)OCCO4)cc2)n1 (racemic) [Example 152],200 to 1000
2,Brc1cncc(Oc2ccc(CN3CCCC3c3ccc4c(c3)OCCO4)cc2)c1 (racemic) [Example 153],200 to 1000
3,N#Cc1ccc(Oc2ccc(CN3CCCC3c3ccc4c(c3)OCCO4)cc2)cc1 (racemic) [Example 154],200 to 1000
4,Cc1cc(-c2ccc(CN3CCCC3c3ccc4c(c3)OCCO4)cn2)ccn1 (racemic) [Example 155],200 to 1000
5,Cc1cc(C(=O)Nc2ccc(CN3CCCC3c3ccc4c(c3)OCCO4)cc2)cc(C)n1 (racemic) [Example 156],200 to 1000
6,Fc1cccc(Oc2ccc(CN3CCCC3c3ccc4c(c3)OCCO4)cc2)n1 (racemic) [Example 157],200 to 1000
7,Cc1cc(C(=O)Nc2ccc(CN3CCCC3c3ccc4c(c3)OCCO4)cc2)ccn1 (racemic) [Example 158],200 to 1000
8,COc1ncc(-c2ccc(CN3CCCC3c3ccc4c(c3)OCCO4)cc2)cn1 (racemic) [Example 159],< 50
9,Fc1ccc(-c2ccc(CN3CCCC3c3ccc4c(c3)OCCO4)cc2)nc1 (racemic) [Example 160],50 to 200
10,"Cc1ccc(-c2nc(CN3CCCC3c3ccc4c(c3)OCO4)co2)cc1 (single isomer, unassigned) [Example 2, (S)-4-((2-(benzo[d] [1,3]dioxol-5-yl)pyrrolidin-1-yl)methyl)-2-(D-tolyl)oxazole or (R)-4-((2-(benzo[d] [1,3]dioxol-5-yl)pyrrolidin-1-yl)methyl)-2-(D-tolyl)oxazole]",1000 to 10000
11,"Cn1cc(-c2ccc(CN3CCCC3c3ccc4c(c3)OCCO4)cc2)cn1 (single isomer, unassigned) [Example 6, (S)-4-(4-((2-(2,3-dihydrobenzo[b] [1,4]dioxin-6-yl)pyrrolidin-1-yl)methyl)phenyl)-1-methyl-1H-pyrazole or (R)-4-(4-((2-(2,3-dihydrobenzo[b] [1,4]dioxin-6-yl)pyrrolidin-1-yl)methyl)phenyl)-1-methyl-1 H-pyrazole]",< 50
12,"Cn1cc(-c2ccc(CN3CCCC3c3ccc4c(c3)OCCO4)cn2)cn1 (single isomer, unassigned) [Example 7, (S)-5-((2-(2,3-dihydrobenzo[b] [1,4]dioxin-6-yl)pyrrolidin-1-yl)methyl)-2-(1-methyl-1H-pyrazol-4-yl)pyridine or (R)-5-((2-(2,3-dihydrobenzo[b] [1,4]dioxin-6-yl)pyrrolidin-1-yl)methyl)-2-(1-methyl-1H-pyrazol-4-yl)pyridine]",50 to 200
13,"CS(=O)(=O)c1ccc(CN2CCCC2c2ccc3c(c2)OCCO3)cc1 (single isomer, unassigned) [Example 13, (S)-2-(2,3-dihydrobenzo[b] [1,4]dioxin-6-yl)-1-(4-(methylsulfonyl)benzyl) pyrrolidine or (R)-2-(2,3-dihydrobenzo[b] [1,4]dioxin-6-yl)-1-(4-(methylsulfonyl)benzyl) pyrrolidine]",200 to 1000
14,"Cn1cc(-c2ccc(CN3CCCC3c3ccc4c(c3)OCCO4)nc2)cn1 (single isomer, unassigned) [Example 18, (S)-2-((2-(2,3-dihydrobenzo[b] [1,4]dioxin-6-yl)pyrrolidin-1-yl)methyl)-5-(1-methyl-1H-pyrazol-4-yl)pyridine or (R)-2-((2-(2,3-dihydrobenzo[b] [1,4]dioxin-6-yl)pyrrolidin-1-yl)methyl)-5-(1-methyl-1H-pyrazol-4-yl)pyridine]",1000 to 10000
15,"c1cnc2ccc(CN3CCCC3c3ccc4c(c3)OCCO4)cc2c1 (single isomer, unassigned) [Example 25, (S)-6-((2-(2,3-dihydrobenzo[b] [1,4]dioxin-6-yl)pyrrolidin-1-yl)methyl)quinolone or (R)-6-((2-(2,3-dihydrobenzo[b] [1,4]dioxin-6-yl)pyrrolidin-1-yl)methyl)quinolone]",50 to 200
16,"c1cnn(-c2ccc(CN3CCCC3c3ccc4c(c3)OCCO4)cc2)c1 (single isomer, unassigned) [Example 27, (S)-1-(4-((2-(2,3-dihydrobenzo[b] [1,4]dioxin-6-yl)pyrrolidin-1-yl)methyl)phenyl)-1 H-pyrazole or (R)-1-(4-((2-(2,3-dihydrobenzo[b] [1,4]dioxin-6-yl)pyrrolidin-1-yl)methyl)phenyl)-1H-pyrazole]",50 to 200
17,"Cc1cc(-c2cccnc2)ccc1CN1CCCC1c1ccc2c(c1)OCCO2 (single isomer, unassigned) [Example 33, (S)-3-(4-((2-(2,3-dihydrobenzo[b] [1,4]dioxin-6-yl)pyrrolidin-1-ylmethyl)-3-methylphenyl)pyridine or (R)-3-(4-((2-(2,3-dihydrobenzo[b] [1,4]dioxin-6-yl)pyrrolidin-1-yl)methyl)-3-methylphenyl)pyridine]",50 to 200
18,"c1ccc(-c2ccc(CN3CCCC3c3ccc4c(c3)OCCO4)cc2)nc1 (single isomer, unassigned) [Example 40, (S)-2-(4-((2-(2,3-dihydrobenzo[b] [1,4]dioxin-6-yl)pyrrolidin-1-yl)methyl)phenyl)pyridine or (R)-2-(4-((2-(2,3-dihydrobenzo[b] [1,4]dioxin-6-yl)pyrrolidin-1-yl)methyl)phenyl)pyridine]",50 to 200
19,"c1ncn(-c2ccc(CN3CCCC3c3ccc4c(c3)OCCO4)cc2)n1 (single isomer, unassigned) [Example 48, (S)-1-(4-((2-(2,3-dihydrobenzo[b] [1,4]dioxin-6-yl)pyrrolidin-1-yl)methyl) Phenyl)-1H-1,2,4-triazole or (R)-1-(4-((2-(2,3-dihydrobenzo[b] [1,4]dioxin-6-yl)pyrrolidin-1-yl)methyl)phenyl)-1 H-1,2,4-triazole]",50 to 200
20,"CS(=O)(=O)N1CCN(c2ccc(CN3CCCC3c3ccc4c(c3)OCCO4)cc2)CC1 (single isomer, unassigned) [Example 53, (S)-1-(4-((2-(2,3-dihydrobenzo[b] [1,4]dioxin-6-yl)pyrrolidin-1-yl)methyl)phenyl)-4-(methylsulfonyl)piperazine or (R)-1-(4-((2-(2,3-dihydrobenzo[b] [1,4]dioxin-6-yl)pyrrolidin-1-yl)methyl)phenyl)-4-(methylsulfonyl)piperazine]",50 to 200
21,"O=C1CSCCN1c1ccc(CN2CCCC2c2ccc3c(c2)OCCO3)cc1 (single isomer, unassigned) [Example 73]",200 to 1000
22,"O=C1CSCCN1c1ccc(CN2CCCC2c2ccc3c(c2)OCCO3)cc1 (single isomer, unassigned) [Example 74]",1000 to 10000
23,"c1cnc(-c2ccc(CN3CCCC3c3ccc4c(c3)OCCO4)cc2)nc1 (single isomer, unassigned) [Example 75, (S)-2-(4-((2-(2,3-dihydrobenzo[b] [1,4]dioxin-6-yl)pyrrolidin-1-yl)methyl)phenyl)pyrimidine or (R)-2-(4-((2-(2,3-dihydrobenzo[b] [1,4]dioxin-6-yl)pyrrolidin-1-yl)methyl)phenyl)pyrimidine]",50 to 200
24,"Cn1cc(-c2ccc(CN3CCCC3c3ccc4c(c3)OCCO4)nc2)cn1 (single isomer, unassigned) [Example 145]",200 to 1000
25,"CS(=O)(=O)N1CCN(c2ccc(CN3CCCC3c3ccc4c(c3)OCCO4)cc2)CC1 (single isomer, unassigned) [Example 148]",1000 to 10000
